Test results from patent US10428101B2, “Preparation of glycosphingosines” (The Regents of the University of California, priority 2013, dated 2019).
Marks after values point to notes of the source that are not given here.

How the values were obtained:
[1] = target: Pasteurella multocida α2-3-sialyltransferase 1 E271F/R313Y mutant (PmST1 E271F/R313Y) (Pasteurella multocida, UniProt Q15KI8, E271F/R313Y); details: for Conversion (%): acceptor lactoside to Neu5Acα2-3 product, OPME sialylation pH 8.5, assayed at 4 h, TLC and ImageQuant 5.2
Source text: To test the suitability of lactoside 1 as an acceptor sugar, a one-pot two-enzyme system containing PmST1 E271F/R313Y and Neisseria meningitidis CMP-sialic acid synthetase (NmCSS) (Scheme 2) was used.
To increase the solubility of the fluorous-tagged lactosides and to examine how the length of the fluorous tags affects the efficiency of the enzymatic reactions, fluorous-tagged lactosides (2-4) (Scheme 1) containing a propylamide linker and different lengths of fluoroalkyl chains were synthesized and used as the acceptor sugars in a one-pot two-enzyme system containing NmCSS and PmST1 E271F/R313Y (Scheme 3).
The reactions were monitored by TLC (EtOAc:MeOH:H2O:AcOH=5:2:1:0.1).

[2] = target: Photobacterium damselae α2-6-sialyltransferse (Pd2,6ST) (Photobacterium damselae, UniProt O66375); test: One-pot two-enzyme α2-6-sialylation of fluorous-tagged lactoside acceptors (NmCSS + Pd2,6ST), conversion by TLC/ImageQuant; format: biochemical; details: acceptor lactoside to Neu5Acα2-6 product; OPME sialylation pH 8.5; assayed at 4 h; TLC and ImageQuant 5.2
Procedure: B: One-pot two-enzyme sialylation reaction with Pd2,6ST.
Reaction conversion rates were determined by staining the TLC plates with p-anisaldehyde sugar stain and then using ImageQuant 5.2 software to compare the relative intensities between the glycosylation product spot and the lactoside acceptor spot of each reaction (FIG. 1). For external standard comparison, each lactoside acceptor spot was also compared with its corresponding standard 10 mM stock solution spot to verify the conversion rates of each reaction.
Pd2,6ST (0.72 μg) was added to a 0.5 mL centrifuge tube containing 0.01μmol (1 eq.) of a lactoside acceptor (chosen from 1-8), Neu5Ac (1.2 eq.), CTP (2 eq.), Tris-HCl buffer (100 mM, pH 8.5), MgCl2 (20 mM), NmCSS (0.08 μg), and water (total volume=10 μL). The reactions were monitored by TLC (EtOAc:MeOH:H2O:AcOH=5:2:1:0.1).

[3] = Water solubility of fluorous-tagged lactoside; format: physicochemical; details: qualitative statement

Chain of Photobacterium damselae α2-6-sialyltransferse (Pd2,6ST) (O66375 entry or part of it): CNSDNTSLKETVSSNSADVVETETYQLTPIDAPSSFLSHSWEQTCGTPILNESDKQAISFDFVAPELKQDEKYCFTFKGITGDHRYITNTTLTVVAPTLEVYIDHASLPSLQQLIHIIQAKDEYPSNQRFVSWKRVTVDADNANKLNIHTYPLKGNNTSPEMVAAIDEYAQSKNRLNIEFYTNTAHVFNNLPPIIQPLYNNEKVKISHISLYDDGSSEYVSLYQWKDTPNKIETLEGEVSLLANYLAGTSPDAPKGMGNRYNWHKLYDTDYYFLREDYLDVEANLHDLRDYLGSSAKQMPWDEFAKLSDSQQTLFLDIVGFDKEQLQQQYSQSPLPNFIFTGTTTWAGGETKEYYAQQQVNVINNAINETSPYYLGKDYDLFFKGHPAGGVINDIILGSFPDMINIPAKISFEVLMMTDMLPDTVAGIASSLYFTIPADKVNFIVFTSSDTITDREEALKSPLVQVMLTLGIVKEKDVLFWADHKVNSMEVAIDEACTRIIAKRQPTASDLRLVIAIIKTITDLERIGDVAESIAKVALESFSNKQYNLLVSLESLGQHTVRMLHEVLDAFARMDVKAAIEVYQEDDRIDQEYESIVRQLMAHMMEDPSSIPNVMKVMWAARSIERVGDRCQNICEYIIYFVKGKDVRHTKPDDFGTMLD
Chain of Pasteurella multocida α2-3-sialyltransferase 1 E271F/R313Y mutant (PmST1 E271F/R313Y) (Q15KI8 26-412 E271F/R313Y): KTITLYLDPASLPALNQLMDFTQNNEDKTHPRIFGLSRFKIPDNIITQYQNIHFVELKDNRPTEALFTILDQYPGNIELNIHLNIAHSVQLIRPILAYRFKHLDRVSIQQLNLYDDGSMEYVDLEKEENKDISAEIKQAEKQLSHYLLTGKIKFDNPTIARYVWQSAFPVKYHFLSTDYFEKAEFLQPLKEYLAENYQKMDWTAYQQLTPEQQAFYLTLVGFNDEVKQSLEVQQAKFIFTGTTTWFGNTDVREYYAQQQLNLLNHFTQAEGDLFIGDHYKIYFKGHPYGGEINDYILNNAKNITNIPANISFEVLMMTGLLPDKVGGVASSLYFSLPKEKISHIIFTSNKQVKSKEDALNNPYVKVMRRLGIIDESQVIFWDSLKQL

Question: Which “Conversion (%)” value [1] does the source give for LacβProNH-TEG-C6F13 [Compound 7] here?
Answer: 70 ± 4.8^[b] %

Question: What about the “Conversion (%)” value [2] of the same substance?
Answer: 65 ± 7.9^[b] %

Question: Which “Conversion (%)” value [1] does the source give for LacβProNH-HEG-C6F13 [Compound 8] here?
Answer: 80 ± 15^[b] %

Question: And the “Conversion (%)” value [2]?
Answer: 66 ± 25^[b] %

Question: Which “Conversion (%)” value [1] does the source give for LacβProNH—C3F7 [Compound 4] here?
Answer: 89 ± 9.8^[b] %

Question: And the “Conversion (%)” value [2]?
Answer: qt.^[b]

Question: With LacβProNH—C6F13 [Compound 3] as the substance, how does the “Conversion (%)” value [1] read?
Answer: 92 ± 5.5^[b] %

Question: What about the “Conversion (%)” value [2] of the same substance?
Answer: 94 ± 6.0^[b] %

Question: Which results are given for LacβProNH-HEG-C8F17 [Compound 6]?
Answer: Conversion (%) [1]: 55 ± 7.8^[b] %; Conversion (%) [2]: 52 ± 5.6^[b] %

Question: With LacβC8F17 [Compound 1] as the substance, how does the “sialylated product detected (trace amount)” value ([1]; one-pot two-enzyme system PmST1 E271F/R313Y and NmCSS, by TLC and MALDI-TOF) read?
Answer: < 10%

Question: What about the water solubility [3] of the same substance?
Answer: low

Question: Which “Conversion (%)” value [1] does the source give for LacβProNH-TEG-C8F17 [Compound 5] here?
Answer: 65 ± 11^[b] %

Question: What about the “Conversion (%)” value [2] of the same substance?
Answer: 47 ± 10^[b] %

Question: Which “Conversion (%)” value [1] does the source give for LacβProNH-C8F17 [Compound 2] here?
Answer: 22 ± 12^[b] %

Question: What about the “Conversion (%)” value [2] of the same substance?
Answer: 31 ± 18^[b] %
